From patent US20250049948A1, “NOVEL IONIZABLE LIPIDS AND LIPID NANOPARTICLES AND METHODS OF USING THE SAME” (Sail Biomedicines, Inc., priority 2021, published 2025)

Columns and labels:
[1] = LNP size and polydispersity, Zetasizer Ultra; type: physicochemical
Protocol: (§1) For each LNP composition, the lipid mix and mRNA solution were mixed at a 1:3 ratio by volume, respectively, on a NanoAssemblr Ignite (Precision Nanosystems) at a total flow rate of 9 mL/min. The resulting compositions were then loaded into Slide-A-Lyzer G2 dialysis cassettes (10 k MWCO) and dialyzed in 200 times sample volume of 1×PBS for 2 hours at room temperature with gentle stirring. The PBS was refreshed, and the compositions were further dialyzed for at least 14 hours at 4° C. with gentle stirring. The dialyzed compositions were then collected and concentrated by centrifugation at 3000×g using Amicon Ultra centrifugation filters (100 k MWCO). The concentrated particles were characterized for size, polydispersity, and particle concentration using Zetasizer Ultra (Malvern Panalytical) and for mRNA encapsulation efficiency using Quant-iT RiboGreen RNA Assay Kit (ThermoFisher Scientific).

[2] = mRNA encapsulation efficiency, Quant-iT RiboGreen RNA Assay; type: physicochemical
Protocol: as §1

Balb/c mice [3] = assay: EPO levels in plasma, EPO MSD kit (Example 6); type: in vivo; conditions: mRNA dose 5 μg FLUC + 5 μg EPO, intravenous
Balb/c mice [4] = assay: In-vivo bioluminescent imaging of LNP compositions (Example 6); conditions: for Bioluminescence (IV) Liver / Bioluminescence (IV) Lung / Bioluminescence (IV) Spleen / Bioluminescence (IV) Whole Body: 4-6 hours post-dose; for Spleen: Liver Ratio: intravenous
[5] = mRNA dose 5 μg FLUC (CRE/FLUC 1:1 LNP)

Structure (SMILES)	PDI ([1]; LNP with FLUC/EPO 1:1 mRNA)	Size (nm) ([1]; LNP with FLUC/EPO 1:1 mRNA)	% EE ([2]; LNP with FLUC/EPO 1:1 mRNA) [%]	hEPO (Balb/c mice [3])	Bioluminescence (IV) Liver (Balb/c mice [4]; mRNA dose 5 μg FLUC + 5 μg EPO)	Bioluminescence (IV) Lung (Balb/c mice [4]; mRNA dose 5 μg FLUC + 5 μg EPO)	Bioluminescence (IV) Spleen (Balb/c mice [4]; mRNA dose 5 μg FLUC + 5 μg EPO)	Bioluminescence (IV) Whole Body (Balb/c mice [4]; mRNA dose 5 μg FLUC + 5 μg EPO)	Spleen: Liver Ratio (Balb/c mice [4]; mRNA dose 5 μg FLUC + 5 μg EPO)	PDI ([1]; LNP with CRE/FLUC 1:1 mRNA)	Size (nm) ([1]; LNP with CRE/FLUC 1:1 mRNA)	% EE ([2]; LNP with CRE/FLUC 1:1 mRNA) [%]	Bioluminescence (IV) Liver (Balb/c mice [4]; [5])	Bioluminescence (IV) Lung (Balb/c mice [4]; [5]) [E + 03]	Bioluminescence (IV) Spleen (Balb/c mice [4]; [5])	Bioluminescence (IV) Whole Body (Balb/c mice [4]; [5])	Spleen: Liver Ratio (Balb/c mice [4]; [5])	PDI ([1]; LNP with EGFP mRNA)	Size (nm) ([1]; LNP with EGFP mRNA)	% EE ([2]; LNP with EGFP mRNA) [%]
CCCCCC(CCCCC)CCCNC(=O)CCCCCCCN(CCCCCCCC(=O)NCCCC(CCCCC)CCCCC)C(=O)CCN1CCCC1 [Compound 2241, 8-(N-(8-oxo-8-((4-pentylnonyl)amino)octyl)-3-(pyrrolidin-1-yl)propanamido)-N-(4-pentylnonyl) octanamide]	0.15	100.89	94.7	1.6E + 03	3.5E + 03	5.4E + 04	7.6E + 04	3.1E + 04	22.241	–	–	–	–	–	–	–	–	–	–	–
CCCCCCC(CCCCCC)CCCOC(=O)CCCCCN(CCCCCC(=O)OCCCC(CCCCCC)CCCCCC)CCCCN(C)C [Compound 2131, bis(4-hexyldecyl) 6,6′-((4-(dimethylamino)butyl)azanediyl) dihexanoate]	–	–	–	–	–	–	–	–	–	0.13	71.2	97.1	1.3E + 05	2.4	9.5E + 03	1.2E + 04	0.076	–	–	–
CCCCCCC(CCCCCC)CCCOC(=O)CCCCCCCN(CCCCCCCC(=O)OCCCC(CCCCCC)CCCCCC)C(=O)CCN1CCCC1 [Compound 2142, bis(4-hexyldecyl) 8,8′-((3-(pyrrolidin-1-yl)propanoyl)azanediyl) dioctanoate]	0.06	69.2	96.7	7.3E + 03	2.4E + 05	2.0E + 05	5.6E + 05	7.8E + 05	2.758	–	–	–	–	–	–	–	–	–	–	–
CCCCCC(CCCCC)CCCOC(=O)CCCCCCCN(CCCCCCCC(=O)OCCCC(CCCCC)CCCCC)CCOCCOCCN(C)C [Compound 2144, 4-pentylnonyl 2-methyl-11-(8-oxo-8-((4-pentylnonyl)oxy)octyl)-5,8-dioxa-2,11-diazanonadecan-19-oate]	–	–	–	–	–	–	–	–	–	0.26	78.0	96.8	7.4E + 04	1.2	3.0E + 04	7.1E + 03	0.401	0.29	73.5	98.3
CCCCCCC(CCCCCC)CCCOC(=O)CCCCCCCN(CCCCCCCC(=O)OCCCC(CCCCCC)CCCCCC)CCCCN(C)C [Compound 2130, bis(4-hexyldecyl) 8,8′-((4-(dimethylamino)butyl)azanediyl) dioctanoate]	0.13	68.7	98.5	1.5E + 02	7.0E + 04	1.4E + 05	3.0E + 03	1.2E + 04	0.045	–	–	–	–	–	–	–	–	–	–	–
CCCCCCC(CCCCCC)CCCOC(=O)CCCCCN(CCCCCC(=O)OCCCC(CCCCCC)CCCCCC)CCC(O)CN(C)C (stereo not shown) [Compound 2140, bis(4-hexyldecyl) 6.6′-((4-(dimethylamino)-3-hydroxybutyl)azanediyl)dihexanoate]	–	–	–	–	–	–	–	–	–	0.16	86.9	96.9	1.6E + 03	5.3	1.2E + 05	4.3E + 04	76.18	–	–	–
CCCCCC(CCCCC)CCCOC(=O)CCCCCCCN(CCCCCCCC(=O)OCCCC(CCCCC)CCCCC)CCC(O)CN(C)C (stereo not shown) [Compound 2138, bis(4-pentylnonyl) 8,8′-((4-(dimethylamino)-3-hydroxybutyl)azanediyl) dioctanoate]	–	–	–	–	–	–	–	–	–	0.35	112.7	97	1.7E + 05	1.2	2.8E + 04	3.7E + 03	0.236	–	–	–
CCCCCCC(CCCCCC)CCCOC(=O)CCCCCCCN(CCCCCCCC(=O)OCCCC(CCCCCC)CCCCCC)CCOCCOCCN(C)C [Compound 2145, 4-hexyldecyl 11-(8-((4-hexyldecyl)oxy)-8-oxooctyl)-2-methyl-5,8-dioxa-2,11-diazanonadecan-19-oate]	0.21	95.4	97.6	8.4E + 02	1.1E + 05	7.2E + 04	1.2E + 03	4.0E + 03	0.012	–	–	–	–	–	–	–	–	–	–	–
CCCCCC(CCCCC)CCCOC(=O)CCCCCCCN(CCCCCCCC(=O)OCCCC(CCCCC)CCCCC)C(=O)CCCN(C)C [Compound 2132, bis(4-pentylnonyl) 8,8′-((4-(dimethylamino)butanoyl)azanediyl) dioctanoate]	–	–	–	–	–	–	–	–	–	0.13	76.3	97.7	1.4E + 05	1.7	2.5E + 04	7.0E + 03	0.212	0.20	90.4	97.2
CCCCCCC(CCCCCC)CCCOC(=O)CCCCCN(CCCCCC(=O)OCCCC(CCCCCC)CCCCCC)C(=O)CCN1CCCC1 [Compound 2143, bis(4-hexyldecyl) 6,6′-((3-(pyrrolidin-1-yl)propanoyl)azanediyl)dihexanoate]	–	–	–	–	–	–	–	–	–	0.11	78.6	97.1	1.3E + 05	6.3	6.5E + 05	1.7E + 05	5.050	0.08	83.4	97.3
CCCCCCC(CCCCCC)CCCOC(=O)CCCCCN(CCCCCC(=O)OCCCC(CCCCCC)CCCCCC)C(=O)CCCN(C)C [Compound 2134, bis(4-hexyldecyl) 6,6′-((4-(dimethylamino)butanoyl)azanediyl) dihexanoate]	–	–	–	–	–	–	–	–	–	0.11	92.9	98.3	7.5E + 04	1.4	4.3E + 03	5.4E + 03	0.063	0.20	107.1	98.3
CCCCCC(CCCCC)CCCOC(=O)CCCCCCCN(CCCCCCCC(=O)OCCCC(CCCCC)CCCCC)CCCCN(C)C [Compound 2129, bis(4-pentylnonyl) 8,8′-((4-(dimethylamino)butyl)azanediyl) dioctanoate]	–	–	–	–	–	–	–	–	–	0.07	81.1	97.0	1.4E + 05	2.1	9.2E + 03	1.9E + 04	0.066	–	–	–
CCCCCCC(CCCCCC)CCCOC(=O)CCCCCCCN(CCCCCCCC(=O)OCCCC(CCCCCC)CCCCCC)CCC(O)CN(C)C (stereo not shown) [Compound 2139, bis(4-hexyldecyl) 8.8′-((4-(dimethylamino)-3-hydroxybutyl)azanediyl) dioctanoate]	0.18	88.6	98.3	2.0E + 02	1.7E + 05	2.2E + 05	1.0E + 05	4.1E + 04	0.583	–	–	–	–	–	–	–	–	–	–	–
